The values that follow come from PMC8288134, “Synthesis, potential antitumor activity, cell cycle analysis, and multitarget mechanisms of novel hydrazones incorporating a 4-methylsulfonylbenzene scaffold: a molecular docking study” (Journal of Enzyme Inhibition and Medicinal Chemistry, 2021).

The test system of one data set is T-47D. Also noted: method as in https://dtp.cancer.gov/dtpstandard/dwindex/index.jsp. Conditions: reference drugs, ref https://dtp.cancer.gov/dtpstandard/dwindex/index.jsp; cited from earlier work.
Another data set deals with CCRF-CEM. Also noted: method as in https://dtp.cancer.gov/dtpstandard/dwindex/index.jsp. Conditions: reference drugs, ref https://dtp.cancer.gov/dtpstandard/dwindex/index.jsp; cited from earlier work.
In data set [1] the test system is ovarian cancer tumour cell lines. Particulars: cited from earlier work; for GI50: read-out: GI50 (subpanel average), reference drugs, ref https://dtp.cancer.gov/dtpstandard/dwindex/index.jsp; for CC50: read-out: LC50 (subpanel average), reference drugs, ref https://dtp.cancer.gov/dtpstandard/dwindex/index.jsp; for TGI (subpanel average): reference drugs, ref https://dtp.cancer.gov/dtpstandard/dwindex/index.jsp.

The next data set deals with HL-60(TB). Also noted: method as in https://dtp.cancer.gov/dtpstandard/dwindex/index.jsp. Conditions: reference drugs, ref https://dtp.cancer.gov/dtpstandard/dwindex/index.jsp; cited from earlier work.
Data set [2] relates to HS 578 T. Also noted: method as in https://dtp.cancer.gov/dtpstandard/dwindex/index.jsp. Particulars: reference drugs, ref https://dtp.cancer.gov/dtpstandard/dwindex/index.jsp; cited from earlier work.
In another data set the test system is ACHN. Also noted: method as in https://dtp.cancer.gov/dtpstandard/dwindex/index.jsp. Conditions: reference drugs, ref https://dtp.cancer.gov/dtpstandard/dwindex/index.jsp; cited from earlier work.
The subject of data set [3] is PC-3. Also noted: method as in https://dtp.cancer.gov/dtpstandard/dwindex/index.jsp. Particulars: reference drugs, ref https://dtp.cancer.gov/dtpstandard/dwindex/index.jsp; cited from earlier work.
In data set [4] the test system is prostate cancer tumour cell lines. Particulars: cited from earlier work; for GI50: read-out: GI50 (subpanel average), reference drugs, ref https://dtp.cancer.gov/dtpstandard/dwindex/index.jsp; for CC50: read-out: LC50 (subpanel average), reference drugs, ref https://dtp.cancer.gov/dtpstandard/dwindex/index.jsp; for TGI (subpanel average): reference drugs, ref https://dtp.cancer.gov/dtpstandard/dwindex/index.jsp.

Data set [5] has as its system BT-549. Also noted: method as in https://dtp.cancer.gov/dtpstandard/dwindex/index.jsp. Conditions: reference drugs, ref https://dtp.cancer.gov/dtpstandard/dwindex/index.jsp; cited from earlier work.
The next data set concerns SF-539. Also noted: method as in https://dtp.cancer.gov/dtpstandard/dwindex/index.jsp. Conditions: reference drugs, ref https://dtp.cancer.gov/dtpstandard/dwindex/index.jsp; cited from earlier work.
Another data set relates to NCI-H322M. Also noted: method as in https://dtp.cancer.gov/dtpstandard/dwindex/index.jsp. Particulars: reference drugs, ref https://dtp.cancer.gov/dtpstandard/dwindex/index.jsp; cited from earlier work.
In data set [6] the test system is OVCAR-3. Also noted: method as in https://dtp.cancer.gov/dtpstandard/dwindex/index.jsp. Particulars: reference drugs, ref https://dtp.cancer.gov/dtpstandard/dwindex/index.jsp; cited from earlier work.
A further data set relates to COLO 205. Also noted: method as in https://dtp.cancer.gov/dtpstandard/dwindex/index.jsp. Conditions: reference drugs, ref https://dtp.cancer.gov/dtpstandard/dwindex/index.jsp; cited from earlier work.
The test system of data set [7] is HS 578 T. In words: NCI antitumor screen (SRB). In kind it is cell-based. Particulars: Homo sapiens, one dose 10 µM, read-out: Growth inhibition percentage (GI%).
Data set [8] concerns OVCAR-3. In words: NCI antitumor screen (SRB). In kind it is cell-based. Particulars: Homo sapiens, one dose 10 µM, read-out: Growth inhibition percentage (GI%).
The subject of data set [9] is PC-3. In words: NCI antitumor screen (SRB). Particulars: Homo sapiens, one dose 10 µM, read-out: Growth inhibition percentage (GI%). In kind it is cell-based.
The next data set deals with MOLT-4. In words: NCI antitumor screen (SRB). In kind it is cell-based. Conditions: Homo sapiens, one dose 10 µM, read-out: Growth inhibition percentage (GI%).
The next data set deals with U251. In words: NCI antitumor screen (SRB). It is filed as cell-based. Particulars: Homo sapiens, U-251, one dose 10 µM, read-out: Growth inhibition percentage (GI%).
In another data set the test system is SR. In words: NCI antitumor screen (SRB). It is filed as cell-based. Particulars: Homo sapiens, one dose 10 µM, read-out: Growth inhibition percentage (GI%).
For the next data set, the system named is CAKI-1. Nature of the data set: NCI antitumor screen (SRB). Conditions: Homo sapiens, one dose 10 µM, read-out: Growth inhibition percentage (GI%). It is filed as cell-based.
In data set [10] the test system is BT-549. In words: NCI antitumor screen (SRB). In kind it is cell-based. Conditions: Homo sapiens, one dose 10 µM, read-out: Growth inhibition percentage (GI%).
For a further data set, the system named is SK-MEL-5. In words: NCI antitumor screen (SRB). Conditions: Homo sapiens; SK-MEL-5; one dose 10 µM; read-out: Growth inhibition percentage (GI%). In kind it is cell-based, human.
The subject of another data set is MDA-MB-435. In words: NCI antitumor screen (SRB). It is filed as cell-based. Conditions: Homo sapiens, one dose 10 µM, read-out: Growth inhibition percentage (GI%).
The next data set deals with SK-OV-3. Nature of the data set: NCI antitumor screen (SRB). Particulars: Homo sapiens, one dose 10 µM, read-out: Growth inhibition percentage (GI%). It is filed as cell-based.
For the next data set, the system named is NCI-H460. In words: NCI antitumor screen (SRB). In kind it is cell-based. Particulars: Homo sapiens, one dose 10 µM, read-out: Growth inhibition percentage (GI%).
In a further data set the test system is K-562. Nature of the data set: NCI antitumor screen (SRB). It is filed as cell-based. Particulars: Homo sapiens, K562; K-562; one dose 10 µM; read-out: Growth inhibition percentage (GI%).
A further data set concerns UO-31. In words: NCI antitumor screen (SRB). It is filed as cell-based, human. Conditions: Homo sapiens; UO-31; one dose 10 µM; read-out: Growth inhibition percentage (GI%).
The subject of the next data set is SF-295. In words: NCI antitumor screen (SRB). Conditions: Homo sapiens, one dose 10 µM, read-out: Growth inhibition percentage (GI%). In kind it is cell-based.
The next data set has as its system MALME-3M. Nature of the data set: NCI antitumor screen (SRB). In kind it is cell-based. Conditions: Homo sapiens, one dose 10 µM, read-out: Growth inhibition percentage (GI%).
A further data set concerns A498. Nature of the data set: NCI antitumor screen (SRB). It is filed as cell-based. Conditions: Homo sapiens, one dose 10 µM, read-out: Growth inhibition percentage (GI%).
The next data set concerns LOX IMVI. In words: NCI antitumor screen (SRB). In kind it is cell-based. Particulars: Homo sapiens, one dose 10 µM, read-out: Growth inhibition percentage (GI%).
A further data set deals with NCI-H226. Also noted: method as in https://dtp.cancer.gov/dtpstandard/dwindex/index.jsp. Particulars: reference drugs, ref https://dtp.cancer.gov/dtpstandard/dwindex/index.jsp; cited from earlier work.
For a further data set, the system named is MDA-MB-468. Also noted: method as in https://dtp.cancer.gov/dtpstandard/dwindex/index.jsp. Conditions: reference drugs, ref https://dtp.cancer.gov/dtpstandard/dwindex/index.jsp; cited from earlier work.

What is called inhibition is how much of the control response was suppressed.

On to `Cc1ccc(-c2cc(C(F)(F)F)nn2-c2ccc(S(N)(=O)=O)cc2)cc1` [Celecoxib, celecoxib], for which the GI50 with T-47D is 15.8 µM; in the data set with CCRF-CEM it was 12.6 µM; in data set [1] it was 17.1 µM; in the data set with HL-60(TB), 15.8 µM; in the data set with HS 578 T [2] it was 19.9 µM; in the data set with ACHN, 15.8 µM. In addition, the GI50 was 12.6 µM in the data set with PC-3 [3]; 14.2 µM in data set [4]; 19.9 µM in the data set on BT-549 [5]; 19.9 µM in the data set on SF-539; 19.9 µM in the data set on NCI-H322M; 15.8 µM with OVCAR-3 [6]. In the data set with COLO 205, the GI50 was 15.8 µM. For the same compound, the CC50 in data set [1] is 65.9 µM; in data set [4], 57 µM. Besides, the “TGI (subpanel average)” value is listed as 34.20 µM in [1] and 28.37 µM in data set [4].
With `O=c1[nH]cc(F)c(=O)[nH]1` [Compound 5-Fu, 5-fluorouracil, reference compound], the inhibition at 10 µM in the data set on HS 578 T [7] is greater than 100%; with OVCAR-3 [8], 52.6%; in the data set on PC-3 [9], 41.8%; in the data set on MOLT-4 it was 56.9%; in the data set with U251, 49.7%; in the data set with SR it was 75.2%. Moreover, the inhibition at 10 µM with CAKI-1 amounted to 60.6%; with BT-549 [10] it was 62.2%; in the data set with SK-MEL-5, 66.3%; in the data set on MDA-MB-435, 63.4%; in the data set on SK-OV-3, 22.5%; with NCI-H460, 87%. In addition, the inhibition at 10 µM is 57.7% in the data set with K-562; 58.7% in the data set with UO-31; 30.9% with SF-295; 41.8% with MALME-3M; greater than 100% in the data set with A498; 69.6% in the data set on LOX IMVI. The figures for the GI50 in data set [1] and in data set [4] were 5.17 µM and 1.46 µM, respectively. Also, the CC50 was 92.9 µM in data set [1] and greater than 100 µM in data set [4]. Further, the “TGI (subpanel average)” value in data set [1] is recorded as 38.36 µM; in data set [4], “c (Compounds showed values ≥ 100 µM)”.
For the compound `C#Cc1cccc(Nc2ncnc3cc(OCCOC)c(OCCOC)cc23)c1` [Erlotinib, erlotinib], the GI50 in the data set on T-47D is 3.98 µM; in the data set with CCRF-CEM, 50.1 µM; in data set [1], 5.52 µM; with HL-60(TB), 25.1 µM; in the data set on HS 578 T [2], 6.31 µM; in the data set on ACHN, 0.199 µM. The GI50 was 39.8 µM in the data set on PC-3 [3]; 20.9 µM in [4]; 31.6 µM in the data set on BT-549 [5]; 39.8 µM in the data set with NCI-H226; 0.126 µM in the data set with MDA-MB-468; 19.9 µM in the data set on SF-539. Further, the figures for the GI50 in the data set with NCI-H322M, with OVCAR-3 [6] and with COLO 205 were 0.1 µM, 3.98 µM and 50.1 µM, respectively. Besides, the CC50 in data set [1] is 97.1 µM; in [4], greater than 100 µM. The “TGI (subpanel average)” value in data set [1] is on record as 74.41 µM; in data set [4], “c (Compounds showed values ≥ 100 µM)”.
Turning to `COc1cc2ncnc(Nc3ccc(F)c(Cl)c3)c2cc1OCCCN1CCOCC1` [Gefitinib, gefitinib], the GI50 with T-47D is 7.94 µM; with CCRF-CEM, 0.398 µM; in data set [1], 3.05 µM; in the data set on HL-60(TB), 1 µM; in the data set on HS 578 T [2] it was 7.94 µM; with ACHN it was 0.158 µM. Also, the GI50 in data set [4] is 3.29 µM; in the data set with BT-549 [5], 3.16 µM; in the data set with NCI-H226, 3.98 µM; in the data set on MDA-MB-468, 0.0126 µM; in the data set on SF-539, 10 µM; with NCI-H322M, 0.063 µM. Also, the GI50 in the data set on COLO 205 was 7.94 µM. Moreover, the “TGI (subpanel average)” value in [1] is 33.29 µM; in data set [4], 31.62 µM.
For the compound `CNC(=O)c1cc(Oc2ccc(NC(=O)Nc3ccc(Cl)c(C(F)(F)F)c3)cc2)ccn1` [Sorafenib, sorafenib], the GI50 in the data set on CCRF-CEM was 1.99 µM; in [1], 2.89 µM; in the data set on ACHN, 2.51 µM; with PC-3 [3], 1.99 µM; in data set [4] it was 2.58 µM; with BT-549 [5], 3.16 µM. Besides, the GI50 is 1.99 µM in the data set with NCI-H226; 1.99 µM with MDA-MB-468; 2.51 µM in the data set with NCI-H322M; 3.16 µM in the data set with OVCAR-3 [6]; 1.99 µM with COLO 205. Besides, the CC50 in data set [1] was 71.3 µM; in [4], 69.9 µM. In addition, the entries for the “TGI (subpanel average)” value in [1] and in data set [4] were 14.43 µM and 10.27 µM, respectively.
Regarding `CS(=O)(=O)c1ccc(C(=O)Nc2ccc(Cl)c(-c3ccccn3)c2)c(Cl)c1` [Vismodegib, vismodegib], the GI50 with T-47D is 31.6 µM; with CCRF-CEM, 31.6 µM; in the data set with HL-60(TB), 31.6 µM; in the data set on HS 578 T [2] it was 79.4 µM; with ACHN, 39.8 µM; in the data set with PC-3 [3], 25.1 µM. The GI50 in the data set on NCI-H226 is 50.1 µM; in the data set with MDA-MB-468, 19.9 µM; in the data set with SF-539 it was 50.1 µM; in the data set with NCI-H322M, 100 µM; in the data set on OVCAR-3 [6] it was 50.1 µM; in the data set with COLO 205, 39.8 µM.
